Assay results as given in patent US11180474B2 (BRISTOL-MYERS SQUIBB COMPANY, priority 2016, dated 2021).

Target: T1, human TLR7 (Homo sapiens, UniProt Q9NYK1)
T1 construct: host or cells: HEK-Blue cells
T1 sequence (Q9NYK1 27-1049): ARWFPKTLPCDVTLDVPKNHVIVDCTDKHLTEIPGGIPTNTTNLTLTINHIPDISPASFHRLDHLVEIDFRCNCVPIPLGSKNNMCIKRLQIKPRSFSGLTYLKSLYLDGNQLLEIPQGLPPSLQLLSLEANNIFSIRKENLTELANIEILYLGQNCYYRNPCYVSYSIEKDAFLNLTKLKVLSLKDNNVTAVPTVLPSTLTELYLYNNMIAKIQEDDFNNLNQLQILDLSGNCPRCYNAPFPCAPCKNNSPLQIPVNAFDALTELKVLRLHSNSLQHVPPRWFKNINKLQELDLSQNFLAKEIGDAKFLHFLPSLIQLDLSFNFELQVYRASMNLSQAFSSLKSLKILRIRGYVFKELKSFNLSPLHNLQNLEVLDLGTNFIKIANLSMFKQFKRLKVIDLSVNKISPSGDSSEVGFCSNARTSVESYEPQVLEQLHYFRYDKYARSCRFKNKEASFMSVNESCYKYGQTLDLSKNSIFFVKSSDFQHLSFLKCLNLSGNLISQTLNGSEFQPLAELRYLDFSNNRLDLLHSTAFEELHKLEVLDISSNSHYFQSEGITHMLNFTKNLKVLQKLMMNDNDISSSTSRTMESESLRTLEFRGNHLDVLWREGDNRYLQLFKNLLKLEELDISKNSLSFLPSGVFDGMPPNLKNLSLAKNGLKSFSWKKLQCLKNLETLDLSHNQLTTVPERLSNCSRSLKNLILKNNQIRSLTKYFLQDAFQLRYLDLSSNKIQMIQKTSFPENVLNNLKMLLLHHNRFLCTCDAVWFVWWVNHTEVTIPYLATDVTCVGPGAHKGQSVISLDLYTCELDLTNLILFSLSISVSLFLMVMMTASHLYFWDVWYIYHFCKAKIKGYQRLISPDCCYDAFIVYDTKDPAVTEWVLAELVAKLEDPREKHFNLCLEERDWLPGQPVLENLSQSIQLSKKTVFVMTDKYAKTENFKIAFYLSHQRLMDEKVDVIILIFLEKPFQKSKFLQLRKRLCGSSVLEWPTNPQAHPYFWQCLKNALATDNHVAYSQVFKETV
Experiment: TLR7 inhibition reporter assay (HEK-Blue cells, SEAP reporter, gardiquimod stimulation)
Assay type: cell-based
Conditions: HEK-Blue cells overexpressing human TLR7, gardiquimod 7.5 μM
Method in brief: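 HEK-Blue reporter cells (15,000/well TLR7, 20,000 TLR8) exposed to compound over 0.05 nM–50 μM, agonist-stimulated (R848 for TLR8, gardiquimod for TLR7), 22 h at 37 °C, 5% CO2. SEAP read with HEK-Blue Detection; % inhibition relative to agonist-plus-DMSO and known-inhibitor controls.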

| Structure (SMILES) | IC50 [µM] |
| --- | --- |
| COc1ccc(-c2[nH]c3ccc(C4CCN(C(=O)Cc5c[nH]cn5)CC4)cc3c2CC(F)(F)F)cc1OC [Example 334, 1-(4-(2-(3,4-dimethoxyphenyl)-3-(2,2,2-trifluoroethyl)-1H-indol-5-yl)piperidin-1-yl)-2-(1H-imidazol-4-yl)ethan-1-one] | 0.13 |
| COc1ccc(-c2[nH]c3ccc(C4CCN(C(=O)CNC[C@@H](O)CO)CC4)cc3c2C)cc1OC [Example 405, (R)-2-((2,3-dihydroxypropyl)amino)-1-(4-(2-(3,4-dimethoxyphenyl)-3-methyl-1H-indol-5-yl)piperidin-1-yl)ethan-1-one] | 18.3 |
| COc1ccc(-c2[nH]c3ccc(C4CCN(CC(=O)N5CC[C@H](N(C)C)C5)CC4)cc3c2CC(F)(F)F)cc1OC [Example 374, (S)-2-(4-(2-(3,4-dimethoxyphenyl)-3-(2,2,2-trifluoroethyl)-1H-indol-5-yl)piperidin-1-yl)-1-(3-(dimethylamino)pyrrolidin-1-yl) ethan-1-one] | 0.009 |
| COc1ccc(-c2[nH]c3ccc(C4CCN(CC(=O)N5CCC(C(N)=O)CC5)CC4)cc3c2CC(F)(F)F)cc1OC [Example 369, 1-(2-(4-(2-(3,4-dimethoxyphenyl)-3-(2,2,2-trifluoroethyl)-1H-indol-5-yl)piperidin-1-yl)acetyl)piperidine-4-carboxamide] | 0.101 |
| COc1ccc(-c2[nH]c3ccc(C4CCN(CC(=O)N5CCN(C(C)=O)CC5)CC4)cc3c2CC(F)(F)F)cc1OC [Example 361, 1-(4-acetylpiperazin-1-yl)-2-(4-(2-(3,4-dimethoxyphenyl)-3-(2,2,2-trifluoroethyl)-1H-indol-5-yl)piperidin-1-yl)ethan-1-one] | 0.1 |
| COc1ccc(-c2[nH]c3ccc(C4CCN(C(=O)Cc5cccnc5)CC4)cc3c2CC(F)(F)F)cc1OC [Example 335, 1-(4-(2-(3,4-dimethoxyphenyl)-3-(2,2,2-trifluoroethyl)-1H-indol-5-yl)piperidin-1-yl)-2-(pyridin-3-yl)ethan-1-one] | 0.331 |
| COc1ccc(-c2[nH]c3ccc(C4CCN(CC(=O)NCCS(=O)(=O)O)CC4)cc3c2CC(F)(F)F)cc1OC [Example 386, 2-(2-(4-(2-(3,4-dimethoxyphenyl)-3-(2,2,2-trifluoroethyl)-1H-indol-5-yl)piperidin-1-yl)acetamido)ethane-1-sulfonic acid] | 0.557 |
| COc1ccc(-c2[nH]c3ccc(C4CCN(CC(=O)NCCCCN5CCCC5)CC4)cc3c2CC(F)(F)F)cc1OC [Example 388, 2-(4-(2-(3,4-dimethoxyphenyl)-3-(2,2,2-trifluoroethyl)-1H-indol-5-yl)piperidin-1-yl)-N-(4-(pyrrolidin-1-yl)butyl)acetamide] | 0.009 |
| COc1ccc(-c2[nH]c3ccc(C4CCN(CC(=O)N5CCN(C(C)C)CC5)CC4)cc3c2CC(F)(F)F)cc1OC [Example 362, 2-(4-(2-(3,4-dimethoxyphenyl)-3-(2,2,2-trifluoroethyl)-1H-indol-5-yl)piperidin-1-yl)-1-(4-isopropylpiperazin-1-yl)ethan-1-one] | 0.065 |
| COc1ccc(-c2[nH]c3ccc(C4CCNCC4(F)F)cc3c2C(C)C)cc1OC (centres unmarked) [Example 325, 5-(3,3-difluoropiperidin-4-yl)-2-(3,4-dimethoxyphenyl)-3-isopropyl-1H-indole] | 0.269 |
| COc1ccc(-c2[nH]c3ccc(C4CCN(C(=O)CCC(N)=O)CC4)cc3c2CC(F)(F)F)cc1OC [Example 333, 4-(4-(2-(3,4-dimethoxyphenyl)-3-(2,2,2-trifluoroethyl)-1H-indol-5-yl)piperidin-1-yl)-4-oxobutanamide] | 0.094 |
| COc1ccc(-c2[nH]c3ccc(C4CCN(C(=O)Cc5ccc(N(C)C)cc5)CC4)cc3c2CC(F)(F)F)cc1OC [Example 338, 1-(4-(2-(3,4-dimethoxyphenyl)-3-(2,2,2-trifluoroethyl)-1H-indol-5-yl)piperidin-1-yl)-2-(4-(dimethylamino)phenyl)ethan-1-one] | 1.49 |
| COc1ccc(-c2[nH]c3ccc(C4CCN(CC(=O)N(C)C)CC4)cc3c2CC(F)F)cc1OC [Example 400, 2-(4-(3-(2,2-difluoroethyl)-2-(3,4-dimethoxyphenyl)-1H-indol-5-yl)piperidin-1-yl)-N,N-dimethylacetamide] | 0.157 |
| COc1ccc(-c2[nH]c3ccc(C4CCN(CC(=O)NCCCN(C)C)CC4)cc3c2CC(F)(F)F)cc1OC [Example 382, 2-(4-(2-(3,4-dimethoxyphenyl)-3-(2,2,2-trifluoroethyl)-1H-indol-5-yl)piperidin-1-yl)-N-(3-(dimethylamino)propyl)acetamide] | 0.017 |
| COc1ccc(-c2[nH]c3ccc(C4CCNCC4F)cc3c2C(C)C)cc1OC (single isomer, unassigned) [Example 324, 2-(3,4-dimethoxyphenyl)-5-(3-fluoropiperidin-4-yl)-3-isopropyl-1H-indole] | 0.051 |
| COc1ccc(-c2[nH]c3ccc(C4CCN(CC(=O)N5CCC[C@@H]5CO)CC4)cc3c2CC(F)(F)F)cc1OC [Example 371, (R)-2-(4-(2-(3,4-dimethoxyphenyl)-3-(2,2,2-trifluoroethyl)-1H-indol-5-yl)piperidin-1-yl)-1-(2-(hydroxymethyl)pyrrolidin-1-yl)ethan-1-one] | 0.079 |
| COc1ccc(-c2[nH]c3ccc(C4CCN(CC(=O)NCCN5CCCC5)CC4)cc3c2CC(F)(F)F)cc1OC [Example 375, 2-(4-(2-(3,4-dimethoxyphenyl)-3-(2,2,2-trifluoroethyl)-1H-indol-5-yl)piperidin-1-yl)-N-(2-(pyrrolidin-1-yl)ethyl)acetamide] | 0.029 |
| COc1ccc(-c2[nH]c3ccc(C4CCN(C(=O)CCCn5ccnc5)CC4)cc3c2CC(F)(F)F)cc1OC [Example 331, 1-(4-(2-(3,4-dimethoxyphenyl)-3-(2,2,2-trifluoroethyl)-1H-indol-5-yl)piperidin-1-yl)-4-(1H-imidazol-1-yl)butan-1-one] | 0.033 |
| COc1ccc(-c2[nH]c3ccc(C4CCN(C(=O)CCN5CCCCC5)CC4)cc3c2CC(F)(F)F)cc1OC [Example 330, 1-(4-(2-(3,4-dimethoxyphenyl)-3-(2,2,2-trifluoroethyl)-1H-indol-5-yl)piperidin-1-yl)-3-(piperidin-1-yl)propan-1-one] | 0.057 |
| CCN1CCCC(N2CCC(c3ccc4[nH]c(-c5ccc(OC)c(OC)c5)c(C)c4c3)CC2)C1 (centres unmarked) [Example 24, 2-(3,4-dimethoxyphenyl)-5-(1′-ethyl-[1,3′-bipiperidin]-4-yl)-3-methyl-1H-indole] | ≥ 50 |
| COc1ccc(-c2[nH]c3ccc(C4CCN(CC(=O)NCCc5ccc(S(N)(=O)=O)cc5)CC4)cc3c2CC(F)(F)F)cc1OC [Example 384, 2-(4-(2-(3,4-dimethoxyphenyl)-3-(2,2,2-trifluoroethyl)-1H-indol-5-yl)piperidin-1-yl)-N-(4-sulfamoylphenethyl)acetamide] | 0.15 |
| COc1ccc(-c2[nH]c3ccc(C4CCN(C(=O)Cc5c[nH]c6ccccc56)CC4)cc3c2CC(F)(F)F)cc1OC [Example 332, 1-(4-(2-(3,4-dimethoxyphenyl)-3-(2,2,2-trifluoroethyl)-1H-indol-5-yl)piperidin-1-yl)-2-(1H-indol-3-yl)ethan-1-one] | 1.86 |
| COc1ccc(-c2[nH]c3ccc(C4CCN(CC(=O)NCC#N)CC4)cc3c2CC(F)(F)F)cc1OC [Example 381, N-(cyanomethyl)-2-(4-(2-(3,4-dimethoxyphenyl)-3-(2,2,2-trifluoroethyl)-1H-indol-5-yl)piperidin-1-yl)acetamide] | 0.063 |
| COc1ccc(-c2[nH]c3ccc(C4CCN(C(=O)CCC(F)(F)F)CC4)cc3c2CC(F)(F)F)cc1OC [Example 350, 1-(4-(2-(3,4-dimethoxyphenyl)-3-(2,2,2-trifluoroethyl)-1H-indol-5-yl)piperidin-1-yl)-4,4,4-trifluorobutan-1-one] | 0.624 |
| COc1ccc(-c2[nH]c3ccc(C4CCN(CC(=O)NCCNC(C)=O)CC4)cc3c2CC(F)(F)F)cc1OC [Example 379, N-(2-acetamidoethyl)-2-(4-(2-(3,4-dimethoxyphenyl)-3-(2,2,2-trifluoroethyl)-1H-indol-5-yl)piperidin-1-yl)acetamide] | 0.094 |
| COc1ccc(-c2[nH]c3ccc(C4CCN(C(=O)CN(C)C)CC4)cc3c2C(O)C(F)(F)F)cc1OC (centres unmarked) [Example 395, 1-(4-(2-(3,4-dimethoxyphenyl)-3-(2,2,2-trifluoro-1-hydroxyethyl)-1H-indol-5-yl)piperidin-1-yl)-2-(dimethylamino)ethan-1-one] | 0.061 |
